{"source": "PubChem BioAssay AID2060901", "about": "(Molecular Pharmacology Branch, DTP, NCI, 2025);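 also: spheroids exposed to compounds for 7 days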;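 as to viability, T/C: 100% = DMSO vehicle control viability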", "system": "422866-222-R5-J1-PDC complex spheroids viability", "assay": "Anticancer human tumor 422866-222-R5-J1-PDC patient-derived pancreatic adenocarcinoma cell line growth inhibition [RAS]", "settings": "for IC50: curve of first compound; for viability, T/C: stronger effect = lower value", "summary_of_the_method": "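Multi-cell-type spheroids: tumor cells plus HUVEC endothelial cells and mesenchymal stem cells. RAS-pathway inhibitors were combined with targeted agents, each dosed in half-log steps down from clinical Cmax, or from 10 microM when Cmax was unknown.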"}
{"smiles": "CCc1c2c(nc3ccc(O)cc13)-c1cc3c(c(=O)n1C2)COC(=O)[C@]3(O)CC", "note": "+ CCn1c(-c2cc(N3CCN(C)CC3)cnc2C(C)OC)c2c3cc(ccc31)-c1csc(n1)CC(NC(=O)C1CC1C)C(=O)N1CCCC(N1)C(=O)OCC(C)(C)C2", "values": [{"measurement": "IC50", "setting": "second compound 0.000949 µM", "result": "< 0.949", "unit": "nM"}, {"measurement": "IC50", "setting": "second compound 0.003 µM", "result": "< 0.949", "unit": "nM"}, {"measurement": "IC50", "setting": "second compound 0.00949 µM", "result": "< 0.949", "unit": "nM"}, {"measurement": "IC50", "setting": "second compound 0.03 µM", "result": "< 0.949", "unit": "nM"}, {"measurement": "IC50", "setting": "second compound 0.0949 µM", "result": "< 0.949", "unit": "nM"}, {"measurement": "IC50", "setting": "second compound 0.3 µM", "result": "< 0.949", "unit": "nM"}, {"measurement": "viability, T/C", "setting": "second compound 0.000949 µM, first compound 0.000949 µM", "result": 25.3, "unit": "%"}, {"measurement": "viability, T/C", "setting": "second compound 0.000949 µM, first compound 0.003 µM", "result": 20.3, "unit": "%"}, {"measurement": "viability, T/C", "setting": "second compound 0.000949 µM, first compound 0.00949 µM", "result": 21.6, "unit": "%"}, {"measurement": "viability, T/C", "setting": "second compound 0.000949 µM, first compound 0.03 µM", "result": 19.5, "unit": "%"}, {"measurement": "viability, T/C", "setting": "second compound 0.000949 µM, first compound 0.0949 µM", "result": 17.7, "unit": "%"}, {"measurement": "viability, T/C", "setting": "second compound 0.000949 µM, first compound 0.3 µM", "result": 12.6, "unit": "%"}, {"measurement": "viability, T/C", "setting": "second compound 0.003 µM, first compound 0.000949 µM", "result": 22.5, "unit": "%"}, {"measurement": "viability, T/C", "setting": "second compound 0.003 µM, first compound 0.003 µM", "result": 17, "unit": "%"}, {"measurement": "viability, T/C", "setting": "second compound 0.003 µM, first compound 0.00949 µM", "result": 15.4, "unit": "%"}, {"measurement": "viability, T/C", "setting": "second compound 0.003 µM, first compound 0.03 µM", "result": 16.7, "unit": "%"}, {"measurement": "viability, T/C", "setting": "second compound 0.003 µM, first compound 0.0949 µM", "result": 14.1, "unit": "%"}, {"measurement": "viability, T/C", "setting": "second compound 0.003 µM, first compound 0.3 µM", "result": 8.32, "unit": "%"}, {"measurement": "viability, T/C", "setting": "second compound 0.00949 µM, first compound 0.000949 µM", "result": 18.9, "unit": "%"}, {"measurement": "viability, T/C", "setting": "second compound 0.00949 µM, first compound 0.003 µM", "result": 14.7, "unit": "%"}, {"measurement": "viability, T/C", "setting": "second compound 0.00949 µM, first compound 0.00949 µM", "result": 13.8, "unit": "%"}, {"measurement": "viability, T/C", "setting": "second compound 0.00949 µM, first compound 0.03 µM", "result": 13.2, "unit": "%"}, {"measurement": "viability, T/C", "setting": "second compound 0.00949 µM, first compound 0.0949 µM", "result": 11.3, "unit": "%"}, {"measurement": "viability, T/C", "setting": "second compound 0.00949 µM, first compound 0.3 µM", "result": 7.61, "unit": "%"}, {"measurement": "viability, T/C", "setting": "second compound 0.03 µM, first compound 0.000949 µM", "result": 16.6, "unit": "%"}, {"measurement": "viability, T/C", "setting": "second compound 0.03 µM, first compound 0.003 µM", "result": 15.6, "unit": "%"}, {"measurement": "viability, T/C", "setting": "second compound 0.03 µM, first compound 0.00949 µM", "result": 14.6, "unit": "%"}, {"measurement": "viability, T/C", "setting": "second compound 0.03 µM, first compound 0.03 µM", "result": 12.8, "unit": "%"}, {"measurement": "viability, T/C", "setting": "second compound 0.03 µM, first compound 0.0949 µM", "result": 10, "unit": "%"}, {"measurement": "viability, T/C", "setting": "second compound 0.03 µM, first compound 0.3 µM", "result": 6.17, "unit": "%"}, {"measurement": "viability, T/C", "setting": "second compound 0.0949 µM, first compound 0.000949 µM", "result": 17, "unit": "%"}, {"measurement": "viability, T/C", "setting": "second compound 0.0949 µM, first compound 0.003 µM", "result": 15, "unit": "%"}, {"measurement": "viability, T/C", "setting": "second compound 0.0949 µM, first compound 0.00949 µM", "result": 13.8, "unit": "%"}, {"measurement": "viability, T/C", "setting": "second compound 0.0949 µM, first compound 0.03 µM", "result": 12.5, "unit": "%"}, {"measurement": "viability, T/C", "setting": "second compound 0.0949 µM, first compound 0.0949 µM", "result": 9.66, "unit": "%"}, {"measurement": "viability, T/C", "setting": "second compound 0.0949 µM, first compound 0.3 µM", "result": 6.78, "unit": "%"}, {"measurement": "viability, T/C", "setting": "second compound 0.3 µM, first compound 0.000949 µM", "result": 16.2, "unit": "%"}, {"measurement": "viability, T/C", "setting": "second compound 0.3 µM, first compound 0.003 µM", "result": 15.7, "unit": "%"}, {"measurement": "viability, T/C", "setting": "second compound 0.3 µM, first compound 0.00949 µM", "result": 16.8, "unit": "%"}, {"measurement": "viability, T/C", "setting": "second compound 0.3 µM, first compound 0.03 µM", "result": 12.8, "unit": "%"}, {"measurement": "viability, T/C", "setting": "second compound 0.3 µM, first compound 0.0949 µM", "result": 10.1, "unit": "%"}, {"measurement": "viability, T/C", "setting": "second compound 0.3 µM, first compound 0.3 µM", "result": 5.7, "unit": "%"}]}
{"smiles": "C=CC(=O)Nc1cc(Nc2nccc(-c3cn(C)c4ccccc34)n2)c(OC)cc1N(C)CCN(C)C", "note": "+ CCn1c(-c2cccnc2C(C)OC)c2c3cc(ccc31)N1CCOC(CC(NC(=O)C(C(C)C)N(C)C(=O)C3(F)CCN(C(=O)C#CC(C)(C)N(C)C)CC3)C(=O)N3CCCC(N3)C(=O)OCC(C)(C)C2)C1", "values": [{"measurement": "IC50", "setting": "second compound 0.000949 µM", "result": "< 3.16", "unit": "nM"}, {"measurement": "IC50", "setting": "second compound 0.003 µM", "result": "< 3.16", "unit": "nM"}, {"measurement": "IC50", "setting": "second compound 0.00949 µM", "result": "< 3.16", "unit": "nM"}, {"measurement": "IC50", "setting": "second compound 0.03 µM", "result": "< 3.16", "unit": "nM"}, {"measurement": "IC50", "setting": "second compound 0.0949 µM", "result": "< 3.16", "unit": "nM"}, {"measurement": "IC50", "setting": "second compound 0.3 µM", "result": "< 3.16", "unit": "nM"}, {"measurement": "viability, T/C", "setting": "second compound 0.000949 µM, first compound 0.00316 µM", "result": 26.2, "unit": "%"}, {"measurement": "viability, T/C", "setting": "second compound 0.000949 µM, first compound 0.01 µM", "result": 27.5, "unit": "%"}, {"measurement": "viability, T/C", "setting": "second compound 0.000949 µM, first compound 0.0316 µM", "result": 26.2, "unit": "%"}, {"measurement": "viability, T/C", "setting": "second compound 0.000949 µM, first compound 0.1 µM", "result": 23, "unit": "%"}, {"measurement": "viability, T/C", "setting": "second compound 0.000949 µM, first compound 0.316 µM", "result": 19.7, "unit": "%"}, {"measurement": "viability, T/C", "setting": "second compound 0.000949 µM, first compound 1 µM", "result": 22.6, "unit": "%"}, {"measurement": "viability, T/C", "setting": "second compound 0.003 µM, first compound 0.00316 µM", "result": 25, "unit": "%"}, {"measurement": "viability, T/C", "setting": "second compound 0.003 µM, first compound 0.01 µM", "result": 19.2, "unit": "%"}, {"measurement": "viability, T/C", "setting": "second compound 0.003 µM, first compound 0.0316 µM", "result": 23.7, "unit": "%"}, {"measurement": "viability, T/C", "setting": "second compound 0.003 µM, first compound 0.1 µM", "result": 16.8, "unit": "%"}, {"measurement": "viability, T/C", "setting": "second compound 0.003 µM, first compound 0.316 µM", "result": 14.6, "unit": "%"}, {"measurement": "viability, T/C", "setting": "second compound 0.003 µM, first compound 1 µM", "result": 15.2, "unit": "%"}, {"measurement": "viability, T/C", "setting": "second compound 0.00949 µM, first compound 0.00316 µM", "result": 21.9, "unit": "%"}, {"measurement": "viability, T/C", "setting": "second compound 0.00949 µM, first compound 0.01 µM", "result": 21.4, "unit": "%"}, {"measurement": "viability, T/C", "setting": "second compound 0.00949 µM, first compound 0.0316 µM", "result": 17.2, "unit": "%"}, {"measurement": "viability, T/C", "setting": "second compound 0.00949 µM, first compound 0.1 µM", "result": 16.4, "unit": "%"}, {"measurement": "viability, T/C", "setting": "second compound 0.00949 µM, first compound 0.316 µM", "result": 13.8, "unit": "%"}, {"measurement": "viability, T/C", "setting": "second compound 0.00949 µM, first compound 1 µM", "result": 16.4, "unit": "%"}, {"measurement": "viability, T/C", "setting": "second compound 0.03 µM, first compound 0.00316 µM", "result": 29.2, "unit": "%"}, {"measurement": "viability, T/C", "setting": "second compound 0.03 µM, first compound 0.01 µM", "result": 19.8, "unit": "%"}, {"measurement": "viability, T/C", "setting": "second compound 0.03 µM, first compound 0.0316 µM", "result": 14.6, "unit": "%"}, {"measurement": "viability, T/C", "setting": "second compound 0.03 µM, first compound 0.1 µM", "result": 15.8, "unit": "%"}, {"measurement": "viability, T/C", "setting": "second compound 0.03 µM, first compound 0.316 µM", "result": 15.9, "unit": "%"}, {"measurement": "viability, T/C", "setting": "second compound 0.03 µM, first compound 1 µM", "result": 15.4, "unit": "%"}, {"measurement": "viability, T/C", "setting": "second compound 0.0949 µM, first compound 0.00316 µM", "result": 18.7, "unit": "%"}, {"measurement": "viability, T/C", "setting": "second compound 0.0949 µM, first compound 0.01 µM", "result": 16.2, "unit": "%"}, {"measurement": "viability, T/C", "setting": "second compound 0.0949 µM, first compound 0.0316 µM", "result": 15.5, "unit": "%"}, {"measurement": "viability, T/C", "setting": "second compound 0.0949 µM, first compound 0.1 µM", "result": 11.9, "unit": "%"}, {"measurement": "viability, T/C", "setting": "second compound 0.0949 µM, first compound 0.316 µM", "result": 13.5, "unit": "%"}, {"measurement": "viability, T/C", "setting": "second compound 0.0949 µM, first compound 1 µM", "result": 13.1, "unit": "%"}, {"measurement": "viability, T/C", "setting": "second compound 0.3 µM, first compound 0.00316 µM", "result": 15.2, "unit": "%"}, {"measurement": "viability, T/C", "setting": "second compound 0.3 µM, first compound 0.01 µM", "result": 15.7, "unit": "%"}, {"measurement": "viability, T/C", "setting": "second compound 0.3 µM, first compound 0.0316 µM", "result": 17.4, "unit": "%"}, {"measurement": "viability, T/C", "setting": "second compound 0.3 µM, first compound 0.1 µM", "result": 13.8, "unit": "%"}, {"measurement": "viability, T/C", "setting": "second compound 0.3 µM, first compound 0.316 µM", "result": 13.7, "unit": "%"}, {"measurement": "viability, T/C", "setting": "second compound 0.3 µM, first compound 1 µM", "result": 13.2, "unit": "%"}]}
